# Results published in patent publication US9044463B2, “FSH receptor antagonists” (Merck Sharp & Dohme B.V., priority 2011, dated 2015).
# pIC50: −log10 of the molar value.
# Target: T1, human FSH receptor (Homo sapiens, UniProt P23945)
# T1 construct: expressed in transfected cells; host or cells: CHO (Chinese Hamster Ovary) cells, stably transfected; cotransfected with a CRE-luciferase reporter
# T1 sequence (P23945 18-695): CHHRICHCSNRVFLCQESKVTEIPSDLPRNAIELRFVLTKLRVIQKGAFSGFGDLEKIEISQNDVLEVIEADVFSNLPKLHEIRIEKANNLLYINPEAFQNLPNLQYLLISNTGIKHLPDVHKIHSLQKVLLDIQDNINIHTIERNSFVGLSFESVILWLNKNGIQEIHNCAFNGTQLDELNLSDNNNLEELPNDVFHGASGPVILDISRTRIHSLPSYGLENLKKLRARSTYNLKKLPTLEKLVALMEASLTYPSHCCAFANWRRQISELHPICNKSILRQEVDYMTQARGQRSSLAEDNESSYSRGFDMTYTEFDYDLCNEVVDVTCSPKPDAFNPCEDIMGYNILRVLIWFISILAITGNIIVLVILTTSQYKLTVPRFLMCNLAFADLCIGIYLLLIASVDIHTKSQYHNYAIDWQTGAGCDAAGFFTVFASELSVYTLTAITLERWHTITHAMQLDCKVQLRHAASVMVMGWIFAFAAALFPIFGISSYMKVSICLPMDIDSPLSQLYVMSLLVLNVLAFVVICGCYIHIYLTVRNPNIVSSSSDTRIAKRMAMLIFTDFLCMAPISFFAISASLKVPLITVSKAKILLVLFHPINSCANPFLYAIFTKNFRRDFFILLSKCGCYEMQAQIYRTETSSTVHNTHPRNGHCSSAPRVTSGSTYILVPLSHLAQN
# Assay: Antagonistic activity at the human FSH receptor expressed in CHO cells (CRE-luciferase reporter)
# Type: cell-based
# Settings: CHO cells stably transfected with human FSH receptor and CRE-luciferase; with 49 μM recFSH; 4 hours incubation; read-out: IC50 (inhibition of recFSH-induced luciferase stimulation)
# Protocol: Antagonistic Activity of Compounds at the Human FSH Receptor Expressed in CHO Cells
# Antagonistic activity of the compounds at the human FSH receptor was determined in Chinese Hamster Ovary (CHO) cells stably transfected with the human FSH receptor and cotransfected to with a cAMP responsive element (CRE)/promoter directing the expression of a firefly luciferase reporter gene. Binding of the compounds to the Gs protein-coupled FSH receptor will result in an increase of cAMP, which in turn will induce an increased transactivation of the luciferase reporter. The cells (7,500 cells/well of a 384 well plate) were incubated in Dulbecco′ minimal essential F12 modified medium (Invitrogen), supplemented with 1 μg/ml bovine insulin, 5 μg/ml human apo-transferrin, 100 U/ml penicillin G and 100 μg/ml streptomycin with the test compounds (concentration between 0.316 nM and 10.0 μM) in duplicate together with […] recFSH (which, at this concentration in the absence of test compound, induces 80% of the maximal luciferase stimulation) in a humidified atmosphere (95%) at 5-7% CO2 and 37° C. The final concentration of DMSO was 1%. After 4 hours of incubation, plates were allowed to adjust to room temperature for 1 hour. Then, SteadyLite (PerkinElmer) solution was added to the wells and cells were allowed to lyse for at least 1 hour at room temperature. Subsequently, luciferase activity was measured in a luminescence counter. The signal is expressed as counts per second (cps). The IC50 (concentration of test compound causing half-maximal (50%) inhibition of the maximally attainable inhibition of the luciferase stimulation by the compound) and efficacy of the compounds were determined using the software program MathIQ (version 2.3, ID Business Solutions Limited).
row,Structure (SMILES),pIC50
1,"COc1cc2c(cc1OC)-c1cc(C(=O)N[C@@H](CO)Cc3c[nH]c4ccccc34)c(OCC3CC3)cc1CC2 [Example 8, (R)-2-(cyclopropylmethoxy)-N-(1-hydroxy-3-(1H-indol-3-yl)propan-2-yl)-6,7-dimethoxy-9,10-dihydrophenanthrene-3-carboxamide]",> 7.00
2,"O=C(N[C@@H](CO)Cc1c[nH]c2ccccc12)c1cc2c(cc1-c1ccccc1F)OCc1cc(C(=O)N3CCOCC3)ccc1-2 [Example 53, 3-(2-fluorophenyl)-N—((R)-1-hydroxy-3-(1H-indol-3-yl)propan-2-yl)-8-(morpholine-4-carbonyl)-6H-benzo[c]chromene-2-carboxamide]",> 7.00
3,"COc1cc2c(cc1OCCN(C)C)COc1cc(-c3ccccc3F)c(C(=O)N[C@@H](CO)Cc3c[nH]c4ccccc34)cc1-2 [Example 48, 8-(2-(dimethylamino)ethoxy)-3-(2-fluorophenyl)-N—((R)-1-hydroxy-3-(1H-indol-3-yl)propan-2-yl)-9-methoxy-6H-benzo[c]chromene-2-carboxamide]",> 7.00
4,"COc1cc2c(cc1OC)-c1cc(C(=O)N[C@@H](CO)Cc3c[nH]c4ccccc34)c(OC(F)F)cc1CC2 [Example 11, (R)-2-(difluoromethoxy)-N-(1-hydroxy-3-(1H-indol-3-yl)propan-2-yl)-6,7-dimethoxy-9,10-dihydrophenanthrene-3-carboxamide]",> 7.00
5,"C=CCOc1cc2c(cc1OC)-c1cc(C(=O)N[C@@H](CO)Cc3c[nH]c4ccccc34)c(-c3ccccc3F)cc1OC2 [Example 46, 8-(allyloxy)-3-(2-fluorophenyl)-N—((R)-1-hydroxy-3-(1H-indol-3-yl)propan-2-yl)-9-methoxy-6H-benzo[c]chromene-2-carboxamide]",> 7.00
6,"CCCC(C)Oc1cc2c(cc1C(=O)N[C@@H](CO)Cc1c[nH]c3ccccc13)-c1cc(OC)c(OC)cc1CC2 (stereo partly drawn) [Example 10, N—((R)-1-hydroxy-3-(1H-indol-3-yl)propan-2-yl)-6,7-dimethoxy-2-(pentan-2-yloxy)-9,10-dihydrophenanthrene-3-carboxamide]",> 7.00
7,"COc1cc2c(cc1O)-c1cc(C(=O)N[C@@H](CO)Cc3c[nH]c4ccccc34)c(-c3ccccc3F)cc1CC2 [Example 31, 2-(2-fluorophenyl)-6-hydroxy-N—((R)-1-hydroxy-3-(1H-indol-3-yl)propan-2-yl)-7-methoxy-9,10-dihydrophenanthrene-3-carboxamide]",6.00 to 7.00
8,"COc1cc2c(cc1OCC1CC1)COc1cc(-c3ccccc3F)c(C(=O)N[C@@H](CO)Cc3c[nH]c4ccccc34)cc1-2 [Example 49, 8-(cyclopropylmethoxy)-3-(2-fluorophenyl)-N—((R)-1-hydroxy-3-(1H-indol-3-yl)propan-2-yl)-9-s methoxy-6H-benzo[c]chromene-2-carboxamide]",> 7.00
9,"COc1cc2c(cc1OC)-c1cc(C(=O)N[C@@H](CO)Cc3c[nH]c4ccccc34)c(-c3cccc(C(N)=O)c3)cc1CC2 [Example 26, (R)-2-(3-carbamoylphenyl)-N-(1-hydroxy-3-(1H-indol-3-yl)propan-2-yl)-6,7-dimethoxy-9,10-dihydrophenanthrene-3-carboxamide]",6.00 to 7.00
10,"COc1cc2c(cc1OC)-c1cc(C(=O)N[C@@H](CO)Cc3c[nH]c4ccccc34)c(-c3ccccc3F)cc1OC2 [Example 36, 3-(2-fluorophenyl)-N—((R)-1-hydroxy-3-(1H-indol-3-yl)propan-2-yl)-8,9-dimethoxy-6H-benzo[c]chromene-2-carboxamide]",> 7.00
11,"COc1cc2c(cc1O)CCc1cc(-c3ccccc3F)c(C(=O)N[C@@H](CO)Cc3c[nH]c4ccccc34)cc1-2 [Example 30, 2-(2-fluorophenyl)-7-hydroxy-N—((R)-1-hydroxy-3-(1H-indol-3-yl)propan-2-yl)-6-methoxy-9,10-dihydrophenanthrene-3-carboxamide]",> 7.00
12,"COc1cc2c(cc1O)COc1cc(-c3ccccc3F)c(C(=O)N[C@@H](CO)Cc3c[nH]c4ccccc34)cc1-2 [Example 44, 3-(2-fluorophenyl)-8-hydroxy-N—((R)-1-hydroxy-3-(1H-indol-3-yl)propan-2-yl)-9-methoxy-6H-benzo[c]chromene-2-carboxamide]",> 7.00
13,"COc1cc2c(cc1C#N)-c1cc(C(=O)N[C@@H](CO)Cc3c[nH]c4ccccc34)c(OC(C)C)cc1CC2 [Example 33, (R)-6-cyano-N-(1-hydroxy-3-(1H-indol-3-yl)propan-2-yl)-2-isopropoxy-7-methoxy-9,10-dihydrophenanthrene-3-carboxamide]",6.00 to 7.00
14,"CN(C)C(=O)c1ccc2c(c1)COc1cc(-c3ccccc3F)c(C(=O)N[C@@H](CO)Cc3c[nH]c4ccccc34)cc1-2 [Example 54, 3-(2-fluorophenyl)-N2-((R)-1-hydroxy-3-(1H-indol-3-yl)propan-2-yl)-N8,N8-dimethyl-6H-benzo[c]chromene-2,8-dicarboxamide]",> 7.00
15,"COc1cc2c(c(OC)c1OC)CCc1cc(-c3cccnc3OC)c(C(=O)N[C@@H](CO)Cc3c[nH]c4ccccc34)cc1-2 [Example 6, N—((R)-1-hydroxy-3-(1H-indol-3-yl)propan-2-yl)-6,7,8-trimethoxy-2-(2-methoxypyrdin-3-v)-9,10-dihydrophenanthrene-3-carboxamide]",> 7.00
16,"COc1cc2c(cc1OCCO)COc1cc(-c3ccccc3F)c(C(=O)N[C@@H](CO)Cc3c[nH]c4ccccc34)cc1-2 [Example 47, 3-(2-fluorophenyl)-N—((R)-1-hydroxy-3-(1H-indol-3-yl)propan-2-yl)-8-(2-hydroxyethoxy)-9-methoxy-6H-benzo[c]chromene-2-carboxamide]",> 7.00
17,"COc1cc2c(cc1OC)-c1cc(C(=O)N[C@@H](CO)Cc3c[nH]c4ccccc34)c(OC(C)C)cc1CC2 [Example 58, (R)-2-isopropoxy-N-(1-hydroxy-3-(1H-indol-3-yl)propan-2-yl)-6,7-dimethoxy-9,10-dihydrophenanthrene-3-carboxamide]",> 7.00
18,"COc1cc2c(cc1OC)-c1cc(C(=O)N[C@@H](CO)Cc3c[nH]c4ccccc34)c(-c3ccc(N)cc3F)cc1CC2 [Example 20, 2-(4-amino-2-fluorophenyl)-N—((R)-1-hydroxy-3-(1H-indol-3-yl)propan-2-yl)-6,7-dimethoxy-9,10-dihydrophenanthrene-3-carboxamide]",> 7.00
19,"COc1cc2c(cc1-c1cnn(C)c1)COc1cc(-c3ccccc3F)c(C(=O)N[C@@H](CO)Cc3c[nH]c4ccccc34)cc1-2 [Example 51, 3-(2-fluorophenyl)-N—((R)-1-hydroxy-3-(1H-indol-3-yl)propan-2-yl)-9-methoxy-8-(1-methyl-1H-pyrazol-4-yl)-6H-benzo[c]chromene-2-carboxamide]",> 7.00
20,"C=CCOc1cc2c(cc1OC)-c1cc(C(=O)N[C@@H](CO)Cc3c[nH]c4ccccc34)c(-c3ccccc3F)cc1CC2 [Example 28, 7-(allyloxy)-2-(2-fluorophenyl)-N—((R)-1-hydroxy-3-(1H-indol-3-yl)propan-2-yl)-6-methoxy-9,10-dihydrophenanthrene-3-carboxamide]",> 7.00
21,"Cc1ccsc1-c1cc2c(cc1C(=O)N[C@@H](CO)Cc1c[nH]c3ccccc13)-c1cc3c(cc1CO2)OCO3 [Example 56, N—((R)-1-hydroxy-3-(1H-indol-3-yl)propan-2-yl)-8,9-(1′,3′-dioxolo)-3-(3-methylthiophen-2-yl)-6H-benzo[c]chromene-2-carboxamide]",> 7.00
22,"COc1cc2c(c(OC)c1OC)CCc1cc(-c3cccc(F)c3F)c(C(=O)N[C@@H](CO)Cc3c[nH]c4ccccc34)cc1-2 [Example 3, 2-(2,3-difluorophenyl)-N—((R)-1-hydroxy-3-(1H-indol-3-yl)propan-2-yl)-6,7,8-trimethoxy-9,10-dihydrophenanthrene-3-carboxamide]",> 7.00
